In the supplement of paper PMC10307832:

How the values were obtained:
Assay in all cases: relative viability (nuclei count vs DMSO), 5 days (fraction); higher = more cells survive
[1] = compound: C1CC2=C(C1)C=C(C=C2)OC3=NC(=C4C(=N3)N(C=N4)CC5=CC=C(C=C5)C6=CC=CC=C6)N[C@@H](CC7=CC=CC=C7)CO [QS11] + Cc1nc(Nc2ncc(C(=O)Nc3c(C)cccc3Cl)s2)cc(N2CCN(CCO)CC2)n1 [Dasatinib] (partner 0.075 µM)
In short: (§1)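 One day after seeding in 1536-well plates, lung cancer cell lines were dosed by pin tool. Dosing was either single-drug or a fixed anchor-drug dose plus five library-drug doses (not always all listed) in √10 steps. After 5 days, nuclei were stained in one fix-and-stain step and counted on 4× images, and relative viability is the nuclei count of treated wells over that of vehicle wells, given as the median of duplicate plates.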

[2] = compound: CC1=C(C=C(C=C1)NC(=O)C2=CC(=CC=C2)C(C)(C)C#N)NC3=CC4=C(C=C3)N=CN(C4=O)C [AZ628] + CC(=O)c1c(C)c2cnc(Nc3ccc(N4CCNCC4)cn3)nc2n(C2CCCC2)c1=O [Palbociclib] (partner 0.5 µM)
In short: as §1

[3] = compound: CC1=C(C=C(C=C1)NC(=O)C2=CC(=CC=C2)C(C)(C)C#N)NC3=CC4=C(C=C3)N=CN(C4=O)C [AZ628] + CC1(C)CCC(c2ccc(Cl)cc2)=C(CN2CCN(c3ccc(C(=O)NS(=O)(=O)c4ccc(N[C@H](CCN5CCOCC5)CSc5ccccc5)c(S(=O)(=O)C(F)(F)F)c4)cc3)CC2)C1 [Navitoclax] (partner 0.5 µM)
In short: as §1

[4] = compound: CC1=C(C=C(C=C1)NC(=O)C2=CC(=CC=C2)C(C)(C)C#N)NC3=CC4=C(C=C3)N=CN(C4=O)C [AZ628] + Nc1nc2[nH]cc(CCc3ccc(C(=O)N[C@@H](CCC(=O)O)C(=O)O)cc3)c2c(=O)[nH]1 [Pemetrexed] (partner 0.2 µM)
In short: as §1

Row | Cell Line | relative viability ([1]; first compound 0.08 µM) | relative viability ([1]; first compound 0.253 µM) | relative viability ([1]; first compound 0.8 µM) | relative viability ([1]; first compound 2.53 µM) | relative viability ([1]; first compound 8 µM) | relative viability ([2]; first compound 0.08 µM) | relative viability ([2]; first compound 0.253 µM) | relative viability ([2]; first compound 0.8 µM) | relative viability ([2]; first compound 2.53 µM) | relative viability ([2]; first compound 8 µM) | relative viability ([3]; first compound 0.08 µM) | relative viability ([3]; first compound 0.253 µM) | relative viability ([3]; first compound 0.8 µM) | relative viability ([3]; first compound 2.53 µM) | relative viability ([3]; first compound 8 µM) | relative viability ([4]; first compound 0.08 µM) | relative viability ([4]; first compound 0.253 µM) | relative viability ([4]; first compound 0.8 µM) | relative viability ([4]; first compound 2.53 µM) | relative viability ([4]; first compound 8 µM)
1 | NCI-H1755 | 0.449 | 0.39 | 0.38 | 0.391 | 0.314 | 0.449 | 0.461 | 0.446 | 0.435 | 0.397 | 0.998 | 1 | 1.05 | 1.02 | 0.956 | 0.421 | 0.434 | 0.403 | 0.579 | 0.353
2 | NCI-H1792 | 0.697 | 0.754 | 0.672 | 0.745 | 0.942 | 0.66 | 0.632 | 0.52 | 0.558 | 0.388 | 0.682 | 0.619 | 0.545 | 0.591 | 0.44 | 1 | 0.677 | 0.457 | 0.583 | 0.368
3 | NCI-H1793 | 0.381 | 0.374 | 0.472 | 0.419 | 0.48 | 0.35 | 0.403 | 0.305 | 0.266 | 0.255 | 0.533 | 0.511 | 0.53 | 0.384 | 0.285 | 1.16 | 0.617 | 0.971 | 0.757 | 0.522
4 | NCI-H1915 | 0.348 | 0.321 | – | 0.35 | 0.239 | 0.398 | 0.392 | 0.316 | 0.316 | 0.205 | 0.764 | 0.768 | 0.79 | 0.689 | 0.584 | 0.518 | 0.506 | 0.455 | 0.359 | 0.242
5 | NCI-H1944 | 0.197 | 0.214 | – | 0.226 | 0.272 | 0.359 | 0.312 | 0.305 | 0.311 | 0.229 | 1.14 | 1.04 | 1 | 0.949 | 0.921 | 0.624 | 0.576 | 0.511 | 0.52 | 0.394
6 | NCI-H1975 | 0.357 | 0.31 | 0.423 | 0.512 | 0.455 | 0.504 | 0.485 | 0.548 | 0.534 | 0.233 | 1.09 | 1.04 | 1.02 | 1.04 | 0.654 | 0.333 | 0.257 | 0.27 | 0.287 | 0.259
7 | NCI-H1993 | 0.558 | 0.508 | 0.618 | 0.684 | 0.528 | 0.685 | 0.548 | 0.496 | 0.595 | 0.266 | 1 | 0.872 | 0.859 | 0.688 | 0.709 | 0.631 | 0.598 | 0.47 | 0.488 | 0.461
8 | NCI-H2009 | 0.277 | 0.295 | 0.261 | 0.209 | 0.229 | 0.201 | 0.177 | 0.141 | 0.125 | 0.174 | 1.11 | 0.94 | 0.98 | 1.04 | 0.455 | 1.1 | 1.09 | 1.05 | 1 | 0.464
9 | NCI-H2023 | 0.634 | 0.475 | 0.555 | 0.572 | 0.618 | 0.45 | 0.381 | 0.239 | 0.406 | 0.153 | 1.01 | 1.02 | 1.03 | 0.996 | 0.762 | 0.272 | 0.208 | 0.193 | 0.201 | 0.125
10 | NCI-H2085 | 0.222 | 0.263 | 0.277 | 0.292 | 0.255 | 0.478 | 0.445 | 0.496 | 0.493 | 0.43 | 1.19 | 1.12 | 1.08 | 1.04 | 0.861 | 0.951 | 0.971 | 0.87 | 0.865 | 0.772
11 | NCI-H2087 | 0.745 | 0.963 | – | 0.963 | 1.2 | 0.194 | 0.157 | 0.165 | 0.149 | 0.173 | 0.746 | 0.676 | 0.64 | 0.669 | 0.267 | 0.671 | 0.632 | 0.604 | 0.501 | 0.281
12 | NCI-H2126 | 0.604 | 0.505 | 0.616 | 0.61 | 0.566 | 0.351 | 0.325 | 0.323 | 0.383 | 0.32 | 0.894 | 0.886 | 0.866 | 0.794 | 0.624 | 0.757 | 0.665 | 0.586 | 0.655 | 0.588
13 | NCI-H2170 | 0.621 | 0.482 | 0.582 | 0.794 | 0.968 | 0.413 | 0.349 | 0.381 | 0.418 | 0.424 | 0.654 | 0.636 | 0.707 | 0.748 | 0.721 | 0.285 | 0.259 | 0.267 | 0.3 | 0.266
14 | NCI-H2228 | 0.415 | 0.521 | 0.55 | 0.725 | 0.677 | 0.763 | 0.605 | 0.843 | 0.737 | 0.619 | 0.829 | 1.13 | 1.03 | 1.01 | 0.839 | 0.348 | 0.296 | 0.351 | 0.355 | 0.234
15 | NCI-H2347 | 0.279 | 0.297 | 0.308 | 0.274 | 0.308 | 0.468 | 0.352 | 0.266 | 0.403 | 0.344 | 0.519 | 0.67 | 0.712 | 0.638 | 0.368 | 0.401 | 0.415 | 0.354 | 0.464 | 0.321
16 | NCI-H2405 | 0.196 | 0.2 | 0.206 | 0.276 | 0.325 | 0.4 | 0.4 | 0.347 | 0.35 | 0.353 | 0.49 | 0.64 | 0.53 | 0.415 | 0.575 | 0.839 | 0.698 | 0.673 | 0.632 | 0.624
